The source of these data is US9428542B2, “Lupane triterpenoid derivatives and pharmaceutical use thereof” (priority 2012, dated 2016).

In data set [1] the test system is HIV-1IIIB. The experiment in a line: HIV-1 full replication assay (HIV-1IIIB-infected MT-2 cells, supernatant read out on TZM-bl cells, β-Gal). In kind it is cell-based. Conditions: Human immunodeficiency virus 1, MT2, 72 h, inhibiting HIV-1IIIB replication in MT-2 cells, 3 days; read-out: IC50 (PM). The procedure: The antiviral activity of the compounds of the present invention was determined in a HIV-1 full replication assay.
In this assay, MT-2 cells that are infected with HIV-1IIIB were co-cultured with different concentration of the tested compounds for 3 days and then supernatant is transferred into new 384-well plates containing TZM-bl cells (also called JC53-bl). TZM-bl cells that could be infected by various kinds of HIV-1 strains stably express a great amount of HIV-1 receptor, co-receptor CD4 molecular, and co-receptor CXCR4 and CCR5. TZM-bl cells harbor LTR-luciferase and β-gal two report genes. The expression of luciferase and β-gal reporter directed by HIV-1 LTR can be activated by Tat protein generated after HIV infection, and the quantity of expression is proportional to the quantity of HIV-1. Compounds that interfere with virus replication in MT-2 cells, maturation of the virus, or post-entry steps in the HIV lifecycle decrease the luciferase signal or β-gal signal. In this experiment, BVM (Bevirimat, PA-457) is used as a positive control drug.
Method for Inhibiting HIV-1 Replication Assay:
The MT-2 cells are infected at a Multiciplicity (MOI) of 0.01 TCID50, and then the MT-2 cells suspension was diluted to a needed concentration. 90 μl of the MT-2 cells suspension from above was added into 384-well plates containing 10 μl of the tested compounds.
Compounds were dissolved in DMSO and tested as 11 points 3-fold serial dilutions. After addition of cells to compound plates, plates were placed to humidified 5% CO2 37 incubator for 3 days. 10 μl of cells culture supernatant from the incubated plates was transferred into new black 384-well plates.
Adjusted the TZMb1 cells concentration and 40 μl of TZMb1 cells was added into each well in the black 384-well plates. After addition of the TZMb1 cells to the black plates, black plates were placed to humidified 5% CO2 37 incubator for 24 h, then β-Gal activity was measured.
The anti viral activity %=(measured number-lowest mean number)/(highest mean number-lowest mean number)×100. The IC50 values were calculated by Median Equation and the IC curve was generated by Graphpad Prism V 5.03.
(§1) TC50 is referred to the toxicity in MT-2 cells by the compounds tested at 50% concentration; IC50 is referred to the inhibiting HIV-1IIIB replication in MT-2 cells by the compounds tested at 50% concentration; Therapeutic Index (TI)=TC50/IC50.

Data set [2] deals with MT-2 cells. In words: Compounds' cytotoxicity assay in MT-2 cells (CellTiter-Glo). The data set is classed as cell-based. More on the design: unit not given here. Conditions: toxicity in MT-2 cells, 3 days. The procedure: 3. Method for Compounds' Cytotoxicity Assay:
The MT-2 cells are diluted to a needed concentration. 90 μl of the MT-2 cells suspension was added into 384-well plates containing 10 μl of the tested compounds. Compounds were dissolved in DMSO and tested as 11 points 3-fold serial dilutions. After addition of cells to compound plates, plates were placed to humidified 5% CO2 37 incubator for 3 days. The Luciferase activity was measured by CellTiter-Glo® Luminescent Cell Viability Assay kit (Promega Corp., WI, USA).
as §1
A general note: Cellular ATP, detected with luciferase, serves as a proxy for viable cell number.

Regarding `CC(C)C1=C2[C@H]3CC[C@@H]4[C@@]5(C)CC[C@H](OC(=O)CC(C)(C)C(=O)O)C(C)(C)[C@@H]5CC[C@@]4(C)[C@]3(C)CC[C@@]2(c2cc(=O)n(Cc3ccc(Cl)cn3)n2C)CC1=O` [Compound 91-9], the IC50 in data set [1] was ≤ 0.17 nM. Moreover, the “TC50 (PM)” value in data set [2] is listed as 26.

On to `CCn1c([C@@]23CC[C@]4(C)[C@H](CC[C@@H]5[C@@]6(C)CC[C@H](OC(=O)CC(C)(C)C(=O)O)C(C)(C)[C@@H]6CC[C@]54C)C2=C(C(C)C)C(=O)C3)cc(=O)n1-c1ccc(Cl)cn1` [Compound 98-6], for which the IC50 in data set [1] was ≤ 0.17 nM. Further, the “TC50 (PM)” value in data set [2] is on record as 13.

As to `CC(C)C1=C2[C@H]3CC[C@@H]4[C@@]5(C)CC[C@H](OC(=O)CC(C)(C)C(=O)O)C(C)(C)[C@@H]5CC[C@@]4(C)[C@]3(C)CC[C@@]2(Cc2nnc(-c3ncc(Cl)cn3)o2)CC1=O` [Compound 22-16], the IC50 in data set [1] came out at 0.48 nM. In data set [2], the “TC50 (PM)” value stood at 39.

As for `CC(C)C1=C2[C@H]3CC[C@@H]4[C@@]5(C)CC[C@H](OC(=O)CC(C)(C)C(=O)O)C(C)(C)[C@@H]5CC[C@@]4(C)[C@]3(C)CC[C@@]2(c2ncc(-c3ccc(Cl)cc3)o2)CC1=O` [Compound 65], in data set [1], the IC50 is 58 nM. The “TC50 (PM)” value in data set [2] was 17.68.

Regarding `CC(C)C1=C2[C@H]3CC[C@@H]4[C@@]5(C)CC[C@H](OC(=O)CC(C)(C)C(=O)O)C(C)(C)[C@@H]5CC[C@@]4(C)[C@]3(C)CC[C@@]2(Cc2nnc(-c3ccc(Br)cn3)o2)CC1=O` [Compound 22-14], the IC50 in data set [1] is ≤ 0.17 nM. In addition, the “TC50 (PM)” value in data set [2] is 200.

On to `CC(C)C1=C2[C@H]3CC[C@@H]4[C@@]5(C)CC[C@H](OC(=O)CC(C)(C)C(=O)O)C(C)(C)[C@@H]5CC[C@@]4(C)[C@]3(C)CC[C@@]2(Cc2nnc(Cc3ccc(Cl)cc3)o2)CC1=O` [Compound 33], for which, in data set [1], the IC50 worked out at 1.6 nM. Moreover, the “TC50 (PM)” value in data set [2] is 18.

For the compound `CC(C)C1=C2[C@H]3CC[C@@H]4[C@@]5(C)CC[C@H](OC(=O)CC(C)(C)C(=O)O)C(C)(C)[C@@H]5CC[C@@]4(C)[C@]3(C)CC[C@@]2(c2nnc(-c3ccc(C(F)(F)F)cn3)o2)CC1=O` [Compound 27-11], the IC50 in data set [1] came to 25 nM. Further, the “TC50 (PM)” value in data set [2] came to 23.

For `CC(C)C1=C2[C@H]3CC[C@@H]4[C@@]5(C)CC[C@H](OC(=O)CC(C)(C)C(=O)O)C(C)(C)[C@@H]5CC[C@@]4(C)[C@]3(C)CC[C@@]2(c2cc(=O)n(Cc3ccccc3)n2C)CC1` [Compound 89-2], the half-maximal inhibitory concentration (IC50) in data set [1] worked out at 58.4 nM. The “TC50 (PM)” value in data set [2] is recorded as 37.

Consider `CC(C)C1=C2[C@H]3CC[C@@H]4[C@@]5(C)CC[C@H](OC(=O)CC(C)(C)C(=O)O)C(C)(C)[C@@H]5CC[C@@]4(C)[C@]3(C)CC[C@@]2(c2cc(=O)n(-c3ccc(Cl)cc3)n2C)CC1=O` [Compound 98-1], for which the IC50 in data set [1] is 1.6 nM. Moreover, the “TC50 (PM)” value in data set [2] is 24.

Take `CC(C)C1=C2[C@H]3CC[C@@H]4[C@@]5(C)CC[C@H](OC(=O)CC(C)(C)C(=O)O)C(C)(C)[C@@H]5CC[C@@]4(C)[C@]3(C)CC[C@@]2(c2cc(=O)n(-c3ccc(C#N)cc3)n2C)CC1=O` [Compound 98-4]: the IC50 in data set [1] was 0.81 nM. Moreover, in data set [2], the “TC50 (PM)” value turned out to be 36.

As for `CC(C)C1=C2[C@H]3CC[C@@H]4[C@@]5(C)CC[C@H](OC(=O)CC(C)(C)C(=O)O)C(C)(C)[C@@H]5CC[C@@]4(C)[C@]3(C)CC[C@@]2(c2cnc(-c3ccc(Cl)cc3)o2)CC1=O` [Compound 77], the IC50 in data set [1] amounted to 159 nM. In addition, in data set [2], the “TC50 (PM)” value turned out to be 200.

For `CC(C)C1=C2[C@H]3CC[C@@H]4[C@@]5(C)CC[C@H](OC(=O)CC(C)(C)C(=O)O)C(C)(C)[C@@H]5CC[C@@]4(C)[C@]3(C)CC[C@@]2([C@@H](O)c2nnc(-c3ncc(Cl)cn3)o2)CC1=O` [Compound 127-5], the IC50 in data set [1] worked out at 1 nM. For the same compound, in data set [2], the “TC50 (PM)” value was determined as 38.

On to `CC(C)C1=C2[C@H]3CC[C@@H]4[C@@]5(C)CC[C@H](OC(=O)CC(C)(C)C(=O)O)C(C)(C)[C@@H]5CC[C@@]4(C)[C@]3(C)CC[C@@]2(c2cc(=O)n(-c3ccc(Cl)cc3)n2CCN)CC1=O` [Compound 155-1], for which the IC50 in data set [1] was 1.6 nM. Also, in data set [2], the “TC50 (PM)” value is on record as 78.

`CC(C)C1=C2[C@H]3CC[C@@H]4[C@@]5(C)CC[C@H](OC(=O)CC(C)(C)C(=O)O)C(C)(C)[C@@H]5CC[C@@]4(C)[C@]3(C)CC[C@@]2(Nc2nnc(-c3ccc(Cl)cc3)o2)CC1=O` [Compound 141-1]: in data set [1], the IC50 turned out to be 5.5 nM. The “TC50 (PM)” value in data set [2] turned out to be 26.

As to `CC(C)C1=C2[C@H]3CC[C@@H]4[C@@]5(C)CC[C@H](OC(=O)CC(C)(C)C(=O)O)C(C)(C)[C@@H]5CC[C@@]4(C)[C@]3(C)CC[C@@]2(Cc2nc(-c3ccc(Cl)cc3)no2)CC1=O` [Compound 108-2], in data set [1], the IC50 was found to be 160 nM. Moreover, in data set [2], the “TC50 (PM)” value stood at 26.

For the compound `CC(C)C1=C2[C@H]3CC[C@@H]4[C@@]5(C)CC[C@H](OC(=O)CC(C)(C)C(=O)O)C(C)(C)[C@@H]5CC[C@@]4(C)[C@]3(C)CC[C@@]2(Cc2nnc(-c3cccnc3)o2)CC1=O` [Compound 22-9], the IC50 in data set [1] stood at 4.3 nM. Also, the “TC50 (PM)” value in data set [2] came out at 33.

Turning to `CC(C)C1=C2[C@H]3CC[C@@H]4[C@@]5(C)CC[C@H](OC(=O)CC(C)(C)C(=O)O)C(C)(C)[C@@H]5CC[C@@]4(C)[C@]3(C)CC[C@@]2(c2cc(=O)n(-c3ccc(Cl)cn3)n2C)CC1=O` [Compound 98-7], the IC50 in data set [1] is ≤ 0.17 nM. In data set [2], the “TC50 (PM)” value was found to be 200.

For the compound `CC(C)C1=C2[C@H]3CC[C@@H]4[C@@]5(C)CC[C@H](OC(=O)CC(C)(C)C(=O)O)C(C)(C)[C@@H]5CC[C@@]4(C)[C@]3(C)CC[C@@]2([C@@H](O)c2nnc(-c3ccc(Cl)cc3)o2)CC1=O` [Compound 127-1], the IC50 in data set [1] is 1.6 nM. Further, the “TC50 (PM)” value in data set [2] came out at 200.

`CC(C)C1=C2[C@H]3CC[C@@H]4[C@@]5(C)CC[C@H](OC(=O)CC(C)(C)C(=O)O)C(C)(C)[C@@H]5CC[C@@]4(C)[C@]3(C)CC[C@@]2(c2nnc(N(CCN(C)C)c3ccc(Cl)cc3)o2)CC1=O` [Compound 133-2]: in data set [1], the IC50 was ≤ 0.17 nM. For the same compound, the “TC50 (PM)” value in data set [2] is 47.

Turning to `CC(C)C1=C2[C@H]3CC[C@@H]4[C@@]5(C)CC[C@H](OC(=O)CC(C)(C)C(=O)O)C(C)(C)[C@@H]5CC[C@@]4(C)[C@]3(C)CC[C@@]2(Cc2nnc(-c3ccc(Cl)cc3F)o2)CC1=O` [Compound 22-13], in data set [1], the IC50 was determined as 1.7 nM. Besides, the “TC50 (PM)” value in data set [2] was 35.

On to `COc1ccc(-n2c(=O)cc([C@@]34CC[C@]5(C)[C@H](CC[C@@H]6[C@@]7(C)CC[C@H](OC(=O)CC(C)(C)C(=O)O)C(C)(C)[C@@H]7CC[C@]65C)C3=C(C(C)C)C(=O)C4)n2C)cn1` [Compound 98-2], for which, in data set [1], the IC50 is 3 nM. The “TC50 (PM)” value in data set [2] is given as 44.

Take `CC(C)C1=C2[C@H]3CC[C@@H]4[C@@]5(C)CC[C@H](OC(=O)CC(C)(C)C(=O)O)C(C)(C)[C@@H]5CC[C@@]4(C)[C@]3(C)CC[C@@]2(c2cc(=O)n(-c3ccc(F)cc3)n2C)CC1=O` [Compound 98-3]: the IC50 in data set [1] amounted to 0.46 nM. The “TC50 (PM)” value in data set [2] stood at 42.

What is called IC50 is the midpoint of a concentration-inhibition curve.
